Data on 8 compounds can be found in US7728016B2, “Substituted 5-membered ring compounds and their use” (Vernalis (Cambridge) Limited, priority 2003, dated 2010).

In the assay the target is T1, human full-length HSP90 (Homo sapiens, UniProt P08238).
T1 construct: E. coli expressed human full-length HSP90 protein; made in house; host or cells: E. coli
Kind of assay: Fluorescence polarization assay (competitive displacement of probe RBT0045864-FAM from HSP90). Conditions: fluorescence polarisation assay, E. coli expressed human full-length HSP90, probe 80 nM. It is filed as binding. The text has this: A fluorescence polarization assay was employed for the evaluation of some of the compounds of the Examples:
Fluorescence Polarization Assay
Fluorescence polarization {also known as fluorescence anisotropy} measures the rotation of a fluorescing species in solution, where the larger molecule the more polarized the fluorescence emission. When the fluorophore is excited with polarized light, the emitted light is also polarized. The molecular size is proportional to the polarization of the fluorescence emission.
The fluoroscein-labelled probe—RBT0045864-FAM—
[drawing 25] binds to HSP90 {full-length human, full-length yeast or N-terminal domain HSP90} and the anisotropy {rotation of the probe:protein complex} is measured.
Test compound is added to the assay plate, left to equilibrate and the anisotropy measured again. Any change in anisotropy is due to competitive binding of compound to HSP90, thereby releasing probe.
Chemicals are of the highest purity commercially available and all aqueous solutions are made up in AR water. • 1) Costar 96-well black assay plate #3915 • 2) Assay buffer of (a)100 mM Tris pH7.4; (b) 20 mM KCl; (c) 6 mM MgCl2. Stored at room temperature. • 3) BSA (bovine serum albumen) 10 mg/ml (New England Biolabs #B9001S) • 4) 20 mM probe in 100% DMSO stock concentration. Stored in the dark at RT. Working concentration is 200 nM diluted in AR water and stored at 4° C. Final concentration in assay 80 nM. • 5) E. coli expressed human full-length HSP90 protein, purified >95% (see, e.g., Panaretou et al., 1998) and stored in 50 μL aliquots at −80° C. Protocol • 1) Add 100 μl 1× buffer to wells 11A and 12A (=FP BLNK) • 2) Prepare assay mix—all reagents are kept on ice with a lid on the bucket as the probe is light-sensitive.
• 3) Aliquot 100 μl assay mix to all other wells • 4) Seal plate and leave in dark at room temp for 20 minutes to equilibrate Compound Dilution Plate—1×3 Dilution Series • 1) In a clear 96-well v-bottom plate—{#VWR 007/008/257} add 10 μl 100% DMSO to wells B1 to H11 • 2) To wells A1 to A11 add 17.5 μl 100% DMSO • 3) Add 2.5 μl cpd to A1. This gives 2.5 mM {50×} stock cpd—assuming cpds 20 mM. • 4) Repeat for wells A2 to A10. Control in columns 11 and 12. • 5) Transfer 5 μl from row A to row B—not column 12. Mix well. • 6) Transfer 5 μl from row B to row C. […] In column 11 {provides standard curve} only add compound B11-H11. Add 2 μl of 100 mM standard cpd to wells B12-H12 {is positive control} • 13) The Z′ factor is calculated from zero controls and positive wells. It typically gives a value of 0.7-0.9.
The compounds tested in the above assay were assigned to one of two activity ranges, namely A=<10 μM; B=>10 μM, and those assignments are reported above.
(In general: In fluorescence polarisation assays a small probe gives low polarisation when free and higher when bound to something large.)

T1 sequence (P08238 whole entry): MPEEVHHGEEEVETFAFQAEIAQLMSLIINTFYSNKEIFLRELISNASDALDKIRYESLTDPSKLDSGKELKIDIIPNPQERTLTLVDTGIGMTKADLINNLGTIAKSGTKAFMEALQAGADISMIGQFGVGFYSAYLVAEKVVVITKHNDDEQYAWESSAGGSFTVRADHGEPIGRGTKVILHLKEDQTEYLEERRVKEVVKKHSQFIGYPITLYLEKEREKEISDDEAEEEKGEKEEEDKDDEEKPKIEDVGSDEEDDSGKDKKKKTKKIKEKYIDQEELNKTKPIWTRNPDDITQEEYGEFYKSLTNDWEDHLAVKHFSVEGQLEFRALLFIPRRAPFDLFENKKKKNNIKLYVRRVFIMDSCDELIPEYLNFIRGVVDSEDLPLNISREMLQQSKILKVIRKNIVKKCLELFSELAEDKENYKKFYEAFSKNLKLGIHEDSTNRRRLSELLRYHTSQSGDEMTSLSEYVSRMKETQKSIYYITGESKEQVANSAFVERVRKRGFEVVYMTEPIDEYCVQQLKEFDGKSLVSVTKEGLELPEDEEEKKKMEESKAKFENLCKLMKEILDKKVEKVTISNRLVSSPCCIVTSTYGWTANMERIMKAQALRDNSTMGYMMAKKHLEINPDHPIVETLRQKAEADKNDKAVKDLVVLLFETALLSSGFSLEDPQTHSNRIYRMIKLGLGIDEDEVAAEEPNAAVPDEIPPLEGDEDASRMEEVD

What is called IC50 is the concentration that gives 50% inhibition. Higher therefore signals weaker potency. For `Oc1ccc(-c2csc(-c3c[nH]c4ccccc34)n2)c(O)c1` [(i)], the IC50 was above 10 µM.

Regarding `Oc1ccc(C2NN=C(Cc3ccccc3)S2)c(O)c1` (centres unmarked) [(ii)], the IC50 was above 10 µM.

On to `Oc1ccc(-c2nnc(S)n2-c2cccc3ccccc23)c(O)c1` [(iii)], for which the IC50 is below 10 µM.

As for `Cc1ccccc1-n1c(S)nnc1-c1ccc(O)cc1O` [(iv)], the IC50 is below 10 µM.

The compound `COc1ccc(OC)c(-n2c(S)nnc2-c2ccc(O)cc2O)c1` [(v)] had an IC50 below 10 µM.

Regarding `O=C(O)c1nnn(-c2ccc(O)cc2O)c1-c1ccc(F)cc1` [Example 1, 1-(2,4-Dihydroxy-phenyl)-5-(4-fluoro-phenyl)-1H-[1,2,3]triazole-4-carboxylic acid], the IC50 is above 10 µM.

Compound `CCOC(=O)c1nnn(-c2ccc(O)cc2O)c1-c1ccc(F)cc1` [Example 2, 1-(2,4-Dihydroxy-phenyl)-5-(4-fluoro-phenyl)-1H-[1,2,3]triazole-4-carboxylic acid ethyl ester] had an IC50 above 10 µM.

`CCOC(=O)c1nnn(-c2cc(Cl)c(O)cc2O)c1-c1ccc(F)cc1` [Example 3, 1-(5-Chloro-2,4-dihydroxy-phenyl)-5-(4-fluoro-phenyl)-1H-[1,2,3]triazole-4-carboxylic acid ethyl ester]: the IC50 is below 10 µM.
